Source: publication PMC9785812 (Pharmaceutics, 2022)

Biological target: T1, SSTR2 receptors (Rattus norvegicus, UniProt P30680)
T1 construct: CA20948 cells are derived from rat pancreas and express SSTR2 endogenously; endogenous in cells; host or cells: CA20948 rat pancreatic cancer cells
Test: Cell binding assay (membrane association and internalization)
Format: cell-based
Conditions: for decrease of binding by co-incubation with unlabeled DOTA-TATE: 1 h
Experimental: Rat pancreatic cancer cell line CA20948 was used given the somatostatin receptor 2 (SSTR2) overexpression as it is found in many human neuroendocrine tumors. Cells were grown in DMEM High Glucose and Pyruvate medium (Gibco 41966029) supplemented with 10% fetal bovine serum (Gibco 10270106) and 100 U/mL penicillin-streptomycin (Sigma-Aldrich P4333) and were maintained in a humidified incubator at 37 °C with 5% CO2 supply. All in vitro results were obtained from a minimum of three replicates per condition.
Hereafter, fractions were collected. First, the membrane-bound fraction was collected following 10 min incubation at room temperature in strip buffer (50 mM glycine, 100 mM NaCl, pH 2.8). Then, the internalized fraction was collected by 30 min of cell lysis (1 M NaOH) at room temperature. […] In addition, total cell number per well was obtained using a MOXI™ automated cell counter (VWR, Leuven, Belgium).

T1 sequence (P30680 whole entry): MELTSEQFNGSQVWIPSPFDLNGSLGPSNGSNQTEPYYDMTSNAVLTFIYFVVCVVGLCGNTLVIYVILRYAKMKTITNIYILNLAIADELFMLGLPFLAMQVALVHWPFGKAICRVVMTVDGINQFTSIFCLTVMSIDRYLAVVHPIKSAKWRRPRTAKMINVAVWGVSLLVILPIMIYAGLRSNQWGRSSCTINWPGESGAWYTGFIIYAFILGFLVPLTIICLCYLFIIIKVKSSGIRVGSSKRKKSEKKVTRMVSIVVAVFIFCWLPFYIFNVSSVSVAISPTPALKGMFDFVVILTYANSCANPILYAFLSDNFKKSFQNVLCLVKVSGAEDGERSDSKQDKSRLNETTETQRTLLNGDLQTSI

## C[C@@H](O)[C@H](NC(=O)[C@@H]1CSSC[C@H](NC(=O)[C@@H](Cc2ccccc2)NC(=O)CN2CCN(CC(=O)O)CCN(CC(=O)O)CCN(CC(=O)O)CC2)C(=O)N[C@@H](Cc2ccc(O)cc2)C(=O)N[C@H](Cc2c[nH]c3ccccc23)C(=O)N[C@@H](CCCCN)C(=O)N[C@@H]([C@@H](C)O)C(=O)N1)C(=O)O [[^153Sm]Sm-DOTA-TATE, metal not drawn]
2.5 nM (2.7 kBq), 1 h incubation, mean ± SD
  internalized fraction of cell-associated activity: 79 ± 2%
4-fold molar excess of unlabeled DOTA-TATE
  decrease of binding by co-incubation with unlabeled DOTA-TATE: about 40%
4000-fold molar excess of unlabeled DOTA-TATE
  decrease of binding by co-incubation with unlabeled DOTA-TATE: ~92%
